Measurements reported in patent publication US20050288259A1, “Composition” (priority 2002, published 2005).

How the values were obtained:
[1] = test system: L. cuprina diflubenzuron-resistant strain (Emmaville); assay: In vitro first stage larvae exposure, prevention of adult fly emergence, diflubenzuron-resistant strain; design: species or system Lucilia cuprina
From the text: Dicyclanil and diflubenzuron belong to different chemical families but are loosely grouped into a large class commonly known as “insect growth regulators”. Importantly both compounds interfere differently with the various development stages of insects. […] The invention makes use of the fact that dicyclanil will control the strains of blowfly that diflubenzuron is ineffective against.
Fly larvae belonging to a diflubenzuron-susceptible strain (LS) and a diflubenzuron-resistant strain (Emmaville) of L. cuprina are tested. First stage larvae are exposed to differing concentrations (aimed to achieve 0-100% prevention of adult fly emergence) of dicyclanil, diflubenzuron or a combination of the two actives (at the ratio used in the invention). The number of larvae forming pupae and the number of pupae producing viable adult flies are recorded. The level of diflubenzuron resistance in the Emmaville strain prevents achieving complete inhibition of adult fly emergence with diflubenzuron. Maximum mortality is 41% at 300 mg diflubenzuron/kg. The limit of solubility of diflubenzuron precludes the testing of higher concentrations.

[2] = Tissue residue study in sheep; type: in vivo; settings: 2, 3, 4, 5, 6 or 17 weeks after treatment with the invention; none above Limit of Quantitation
Protocol: Tissue residue studies are carried out to determine the period after treatment where the produce of treated animals cannot be used for human consumption. The proposed maximum dose rate for the invention is used in this evaluation. Sheep are treated with the invention at the commencement of the study and at pre-defined intervals thereafter, groups of sheep are humanely sacrificed and the appropriate target tissues (liver, kidney, muscle, fat) are recovered and subsequently analyzed (under Good Laboratory Practice conditions) for the presence of active ingredients (and their metabolites if necessary).
The residue definition for dicyclanil in Australia is the sum of dicyclanil and its metabolite CGA 297′107. Considering this, in the course of this study the mean maximum residue concentrations were detected at two and three weeks post-treatment.
The residue definition for diflubenzuron in Australia is expressed as only diflubenzuron. In this study there were no detectable residues in individual tissues (liver, kidney, subcutaneous fat, renal fat) from any animal above the Limit of Quantitation (0.025 mg/kg) at 2, 3, 4, 5, 6 or 17 weeks after treatment.

| Compound | Emmaville strain response to dicyclanil ([1]; Emmaville strain compared with LS) | diflubenzuron residues in individual tissues (liver, kidney, subcutaneous fat, renal fat) [2] [mg/kg] | Maximum mortality ([1]; Emmaville strain, 300 mg diflubenzuron/kg) [%] |
| --- | --- | --- | --- |
| N#Cc1c(N)nc(NC2CC2)nc1N [dicyclanil, 4,6-diamino-2-cyclopropylaminopyrimidine-5-carbonitrile] | typical of a susceptible strain |  |  |
| O=C(NC(=O)c1c(F)cccc1F)Nc1ccc(Cl)cc1 [diflubenzuron, 1-(4-chlorophenyl)-3-(2,6-difluorobenzoyl)urea] |  | < 0.025 | 41 |
